EC50 data for 17 compounds are collected here from patent publication US7659270B2, “Hepatitis C virus inhibitors” (Bristol-Myers Squibb Company, priority 2006, dated 2010).

The subject of this experiment is HCV 1b-377-neo replicon cells. Put plainly: HCV replicon assay (HCV 1b-377-neo replicon cells). The format is cell-based, Hepatitis C virus genotype 1b. As to conditions: Hepatitis C virus, read-out: EC50 range against HCV 1b (Range). The method, then:
An HCV Replion assay was utilized in the present disclosure, and was prepared, conducted and validated as described in commonly owned PCT/US2006/022197 and in O'Boyle et. al. Antimicrob Agents Chemother. April 2005;49(4): 1346-53.
HCV 1b-377-neo replicon cells were used to test the currently described compound series as well as cells resistant to compound A due to a Y2065H mutation in NS5A (described in application PCT/US2006/022197). The compounds tested were determined to have more than 10-fold less inhibitory activity on cells resistant to compound A than wild-type cells indicating a related mechanism of action between the two compound series. Thus, the compounds of the present disclosure can be effective to inhibit the function of the HCV NS5A protein and are understood to be as effective in combinations as previously described in application PCT/US2006/022197 and commonly owned WO/04014852. Further, the compounds of the present disclosure can be effective against the HCV 1b genotype. It should also be understood that the compounds of the present disclosure can inhibit multiple genotypes of HCV. […] In one embodiment compounds of the present disclosure are active against the 1a, 1b, 2a, 2b, 3a, 4a, and 5a genotypes.
A general note: A replicon is a self-replicating genome or part of one, used to study replication in cells.
`CO[C@@H](C(=O)N1CCC[C@H]1c1ncc(-c2ccc(-c3ccc(-c4cnc([C@@H]5CCCN5C(=O)[C@H](OC)c5ccccc5)[nH]4)cn3)cc2)[nH]1)c1ccccc1` [Example 135, 5-(2-((2S)-1-((2R)-2-methoxy-2-phenylacetyl)-2-pyrrolidinyl)-1H-imidazol-5-yl)-2-(4-(2-((2S)-1-((2R)-2-methoxy-2-phenylacetyl)-2-pyrrolidinyl)-1H-imidazol-5-yl)phenyl)pyridine]: the EC50 lay in the range of 0.01 to 0.999 nM. Under `Cc1cc(-c2cnc([C@@H]3CCCN3C(=O)[C@@H](c3ccccc3)N(C)C)[nH]2)ccc1-c1ccc(-c2cnc([C@@H]3CCCN3C(=O)[C@@H](c3ccccc3)N(C)C)[nH]2)cn1` [Example 136, (1R)-2-((2S)-2-(5-(6-(4-(2-((2S)-1-((2R)-2-(dimethylamino)-2-phenylacetyl)-2-pyrrolidinyl)-1H-imidazol-5-yl)-2-methylphenyl)-3-pyridinyl)-1H-imidazol-2-yl)-1-pyrrolidinyl)-N,N-dimethyl-2-oxo-1-phenylethanamine] stands 0.01 to 0.999 nM. For `COC(=O)N[C@@H](C(=O)N1CCC[C@H]1c1ncc(-c2ccc(-c3ccc(-c4cnc([C@@H]5CCCN5C(=O)[C@H](NC(=O)OC)c5ccccc5)[nH]4)cc3C)nc2)[nH]1)c1ccccc1` [Example 138, methyl((1R)-2-((2S)-2-(5-(6-(4-(2-((2S)-1-((2R)-2-((methoxycarbonyl)amino)-2-phenylacetyl)-2-pyrrolidinyl)-1H-imidazol-5-yl)-2-methylphenyl)-3-pyridinyl)-1H-imidazol-2-yl)-1-pyrrolidinyl)-2-oxo-1-phenylethyl)carbamate], the EC50 lay within 0.01 to 0.999 nM. Take `CC(=O)N[C@@H](C(=O)N1CCC[C@H]1c1ncc(-c2ccc(-c3ccc(-c4cnc([C@@H]5CCCN5C(=O)[C@H](NC(C)=O)c5ccccc5)[nH]4)cn3)cc2)[nH]1)c1ccccc1` [Example 139, N-((1R)-2-((2S)-2-(5-(6-(4-(2-((2S)-1-((2R)-2-acetamido-2-phenylacetyl)-2-pyrrolidinyl)-1H-imidazol-5-yl)phenyl)-3-pyridinyl)-1H-imidazol-2-yl)-1-pyrrolidinyl)-2-oxo-1-phenylethyl)acetamide]: the EC50 lay within 0.01 to 0.999 nM. Under `COC(=O)N[C@@H](C(=O)N1CCC[C@H]1c1ncc(-c2ccc(-c3ccc(-c4cnc([C@@H]5CCCN5C(=O)[C@@H](c5ccccc5)N(C)C)[nH]4)cn3)cc2)[nH]1)c1ccccc1` [Example 140, methyl((1R)-2-((2S)-2-(5-(4-(5-(2-((2S)-1-((2R)-2-(dimethylamino)-2-phenylacetyl)-2-pyrrolidinyl)-1H-imidazol-5-yl)-2-pyridinyl)phenyl)-1H-imidazol-2-yl)-1-pyrrolidinyl)-2-oxo-1-phenylethyl)carbamate] stands 0.01 to 0.999 nM; under `COC(=O)N[C@@H](C(=O)N1CCC[C@H]1c1ncc(-c2ccc(-c3ccc(-c4cnc([C@@H]5CCCN5C(=O)[C@H]5CCCO5)[nH]4)cn3)cc2)[nH]1)c1ccccc1` [Example 141, methyl ((1R)-2-oxo-1-phenyl-2-((2S)-2-(5-(4-(5-(2-((2S)-1-((2R)-tetrahydro-2-furanylcarbonyl)-2-pyrrolidinyl)-1H-imidazol-5-yl)-2-pyridinyl)phenyl)-1H-imidazol-2-yl)-1-pyrrolidinyl)ethyl)carbamate], 0.01 to 0.999 nM. Consider `COC(=O)N[C@@H](C(=O)N1CCC[C@H]1c1ncc(-c2ccc(-c3ccc(-c4cnc([C@@H]5CCCN5C(=O)C5CCN(C)CC5)[nH]4)cn3)cc2)[nH]1)c1ccccc1` [Example 142, methyl ((1R)-2-((2S)-2-(5-(4-(5-(2-((2S)-1-((1-methyl-4-piperidinyl)carbonyl)-2-pyrrolidinyl)-1H-imidazol-5-yl)-2-pyridinyl)phenyl)-1H-imidazol-2-yl)-1-pyrrolidinyl)-2-oxo-1-phenylethyl)carbamate], for which the EC50 fell in the range of 1 to 99 nM. Under `COC(=O)N[C@@H](C(=O)N1CCC[C@H]1c1ncc(-c2ccc(-c3ccc(-c4cnc([C@@H]5CCCN5C(=O)Cc5cccnc5)[nH]4)cn3)cc2)[nH]1)c1ccccc1` [Example 143, methyl ((1R)-2-oxo-1-phenyl-2-((2S)-2-(5-(4-(5-(2-((2S)-1-(3-pyridinylacetyl)-2-pyrrolidinyl)-1H-imidazol-5-yl)-2-pyridinyl)phenyl)-1H-imidazol-2-yl)-1-pyrrolidinyl)ethyl)carbamate] stands 0.01 to 0.999 nM. Under `COC(=O)N[C@@H](C(=O)N1CCC[C@H]1c1ncc(-c2ccc(-c3ccc(-c4cnc([C@@H]5CCCN5C(=O)N5CCOCC5)[nH]4)cn3)cc2)[nH]1)c1ccccc1` [Example 144, methyl((1R)-2-((2S)-2-(5-(4-(5-(2-((2S)-1-(4-morpholinylcarbonyl)-2-pyrrolidinyl)-1H-imidazol-5-yl)-2-pyridinyl)phenyl)-1H-imidazol-2-yl)-1-pyrrolidinyl)-2-oxo-1-phenylethyl)carbamate] stands 0.01 to 0.999 nM; under `COC(=O)N[C@@H](C(=O)N1CCC[C@H]1c1ncc(-c2ccc(-c3ccc(-c4cnc([C@@H]5CCCN5C(=O)[C@H](NC(=O)OC)c5ccccc5)[nH]4)cn3)nc2)[nH]1)c1ccccc1` [Example 145, dimethyl(2,2′-bipyridine-5,5′-diylbis(1H-imidazole-5,2-diyl(2S)-2,1-pyrrolidinediyl((1R)-2-oxo-1-phenyl-2,1-ethanediyl)))biscarbamate], 0.01 to 0.999 nM; under `CN(C)[C@@H](C(=O)N1CCC[C@H]1c1ncc(-c2ccc(-c3ccc(-c4cnc([C@@H]5CCCN5C(=O)[C@@H](c5ccccc5)N(C)C)[nH]4)nc3)cc2)[nH]1)c1ccccc1` [Example 146, (1R)-2-((2S)-2-(5-(5-(4-(2-((2S)-1-((2R)-2-(dimethylamino)-2-phenylacetyl)-2-pyrrolidinyl)-1H-imidazol-5-yl)phenyl)-2-pyridinyl)-1H-imidazol-2-yl)-1-pyrrolidinyl)-N,N-dimethyl-2-oxo-1-phenylethanamine], 0.01 to 0.999 nM. Under `COC(=O)N[C@@H](C(=O)N1CCC[C@H]1c1ncc(-c2ccc(-c3ccc(-c4cnc([C@@H]5CCCN5C(=O)[C@H](NC(=O)OC)c5ccccc5)[nH]4)nc3)cc2)[nH]1)c1ccccc1` [Example 147, methyl((1R)-2-((2S)-2-(5-(5-(4-(2-((2S)-1-((2R)-2-((methoxycarbonyl)amino)-2-phenylacetyl)-2-pyrrolidinyl)-1H-imidazol-5-yl)phenyl)-2-pyridinyl)-1H-imidazol-2-yl)-1-pyrrolidinyl)-2-oxo-1-phenylethyl)carbamate] stands 0.01 to 0.999 nM; under `CN(C)[C@@H](C(=O)N1CSC[C@H]1c1ncc(-c2ccc(-c3ccc(-c4cnc([C@@H]5CSCN5C(=O)[C@@H](c5ccccc5)N(C)C)[nH]4)cc3)cc2)[nH]1)c1ccccc1` [Example 148, (1R,1′R)-2,2′-(4,4′-biphenyldiylbis(1H-imidazole-5,2-diyl(4R)-1,3-thiazolidine-4,3-diyl))bis(N,N-dimethyl-2-oxo-1-phenylethanamine)], 1 to 99 nM; under `CN(C)[C@@H](C(=O)N1CCC[C@H]1c1ncc(-c2ccc(-c3ncc(-c4cnc([C@@H]5CCCN5C(=O)[C@@H](c5ccccc5)N(C)C)[nH]4)cn3)cc2)[nH]1)c1ccccc1` [Example 152j-1, (1R)-2-((2S)-2-(5-(2-(4-(2-((2S)-1-((2R)-2-(dimethylamino)-2-phenylacetyl)-2-pyrrolidinyl)-1H-imidazol-5-yl)phenyl)-5-pyrimidinyl)-1H-imidazol-2-yl)-1-pyrrolidinyl)-N,N-dimethyl-2-oxo-1-phenylethanamine], 1 to 99 nM. In the case of `COC(=O)N[C@@H](C(=O)N1CCC[C@H]1c1ncc(-c2ccc(-c3ncc(-c4cnc([C@@H]5CCCN5C(=O)[C@H](NC(=O)OC)c5ccccc5)[nH]4)cn3)cc2)[nH]1)c1ccccc1` [Example 152j-2, methyl ((1R)-2-((2S)-2-(5-(2-(4-(2-((2S)-1-((2R)-2-((methoxycarbonyl)a-mino)-2-phenylacetyl)-2-pyrrolidinyl)-1H-imidazol-5-yl)phenyl)-5-pyrimidinyl)-1H-imidazol-2-yl)-1-pyrrolidinyl)-2-oxo-1-phenylethyl)carba-mate], the EC50 lay within 0.01 to 0.999 nM.

`COC(=O)N[C@@H](C(=O)N1CCC[C@H]1c1ncc(-c2ccc(-c3ncc(-c4cnc([C@@H]5CCCN5C(=O)Cc5cccnc5)[nH]4)cn3)cc2)[nH]1)c1ccccc1` [Example 152j-3, methyl ((1R)-2-oxo-1-phenyl-2-((2S)-2-(5-(4-(5-(2-((2S)-1-(3-pyridinylacetyl)-2-pyrrolidinyl)-1H-imidazol-5-yl)-2-pyrimidinyl)phenyl)-1H-imidazol-2-yl)-1-pyrrolidinyl)ethyl)car-bamate]: the EC50 lay within 0.01 to 0.999 nM. The value for `O=C([C@@H](c1ccccc1)N1CCCCC1)N1CCC[C@H]1c1ncc(-c2ccc(-c3ncc(-c4cnc([C@@H]5CCCN5C(=O)[C@@H](c5ccccc5)N5CCCCC5)[nH]4)cn3)cc2)[nH]1` [Example 152j-5, 5-(2-((2S)-1-((2R)-2-phenyl-2-(1-piperidinyl)acetyl)-2-pyrrolidinyl)-1H-imidazol-5-yl)-2-(4-(2-((2S)-1-((2R)-2-phenyl-2-(1-piperidinyl)acetyl)-2-pyrrolidinyl)-1H-imidazol-4-yl)phenyl)pyrimidine] was 0.01 to 0.999 nM.

In general, EC50 refers to the concentration needed to bring the measured effect to its halfway point.
